Results reported in US20230097157A1, “Bicyclic Pyridin-2-one and pyrimidin-4-one Derivatives Useful As a Factor XIa Inhibitors” (Janssen Pharmaceutica NV, priority 2021, published 2023).
Read-outs that look alike come from different tables or passages of the source.

Assays:
[1] = biological target: Factor XIa (Homo sapiens, UniProt P03951); test: Factor XIa inhibition assay (FLINT) utilizing a fluorophore-quencher pair peptide substrate 5Fam-[…]-K5Tamra; type: biochemical; conditions: kinetic (KIN) reads, read-out: FXIa KIN Inh IC50
In short: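 FXIa was preincubated with compound for 30 min at room temperature in Tris pH 7.5 buffer containing CaCl2, BSA and CHAPS, then reacted with 15 μM quenched 5Fam/Tamra peptide substrate. Fluorescence (485/520 nm) was read kinetically every 5 min for 30 min.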

[2] = biological target: human plasma kallikrein (Homo sapiens, UniProt P03952); test: Kallikrein inhibition assay (FLINT) utilizing a quenched AMC peptide substrate Z-Gly-Pro-Arg-AMC; type: biochemical; conditions: kinetic (KIN) reads, read-out: Kallikrein KIN Inh IC50
In short: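 Human plasma kallikrein (2 nM final) pre-incubated 30 min with compound (11-point 3-fold series, top 1 μM, 2% DMSO), then 50 μM Z-Gly-Pro-Arg-AMC added. Buffer 50 mM Tris pH 7.5, 100 mM NaCl, 5 mM CaCl2, BSA, CHAPS. AMC fluorescence (340/440 nm) read kinetically over 30 min at room temperature, IC50 by 4-parameter logistic fit.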

Factor XIa, sequence (P03951 388-625 limits assumed): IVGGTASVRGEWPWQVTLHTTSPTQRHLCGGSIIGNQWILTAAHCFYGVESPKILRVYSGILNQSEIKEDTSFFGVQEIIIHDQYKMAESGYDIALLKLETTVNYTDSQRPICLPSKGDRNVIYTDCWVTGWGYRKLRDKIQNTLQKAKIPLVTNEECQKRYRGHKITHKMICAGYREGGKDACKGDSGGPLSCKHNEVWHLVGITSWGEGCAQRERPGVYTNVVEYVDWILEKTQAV
Factor XIa, sequence (P03951 19-387 partner limits assumed): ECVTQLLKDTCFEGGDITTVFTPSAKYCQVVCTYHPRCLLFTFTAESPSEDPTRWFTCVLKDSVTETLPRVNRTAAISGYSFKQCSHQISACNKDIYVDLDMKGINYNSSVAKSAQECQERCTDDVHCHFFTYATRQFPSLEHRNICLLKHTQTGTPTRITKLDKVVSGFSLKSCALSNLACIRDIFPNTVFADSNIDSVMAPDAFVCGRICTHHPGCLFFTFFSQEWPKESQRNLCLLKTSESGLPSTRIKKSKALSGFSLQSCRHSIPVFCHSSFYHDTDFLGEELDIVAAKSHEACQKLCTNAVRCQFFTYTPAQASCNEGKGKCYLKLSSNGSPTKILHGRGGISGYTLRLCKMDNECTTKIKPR
human plasma kallikrein, sequence (P03952 391-638 limits assumed): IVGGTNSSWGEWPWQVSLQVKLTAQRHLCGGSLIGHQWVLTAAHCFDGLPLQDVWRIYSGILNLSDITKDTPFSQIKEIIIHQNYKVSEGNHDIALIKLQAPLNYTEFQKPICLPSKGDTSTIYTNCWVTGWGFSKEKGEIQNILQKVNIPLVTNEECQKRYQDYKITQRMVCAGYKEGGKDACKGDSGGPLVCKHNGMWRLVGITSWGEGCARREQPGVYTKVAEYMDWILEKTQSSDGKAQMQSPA
human plasma kallikrein, sequence (P03952 20-390 partner limits assumed): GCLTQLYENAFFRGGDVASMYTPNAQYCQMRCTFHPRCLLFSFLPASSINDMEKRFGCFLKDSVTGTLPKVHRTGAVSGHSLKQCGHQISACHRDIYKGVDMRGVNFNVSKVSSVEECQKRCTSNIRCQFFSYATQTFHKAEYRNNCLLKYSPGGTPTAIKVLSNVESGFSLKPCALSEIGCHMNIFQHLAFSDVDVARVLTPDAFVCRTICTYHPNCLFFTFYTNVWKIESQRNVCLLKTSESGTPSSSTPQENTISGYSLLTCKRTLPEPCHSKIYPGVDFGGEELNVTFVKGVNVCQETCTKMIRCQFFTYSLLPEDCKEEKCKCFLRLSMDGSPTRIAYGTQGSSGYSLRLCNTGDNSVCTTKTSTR

With `COc1cc(-c2cnc([C@@H]3C[C@H](C)c4nc(-c5c(-n6cnnn6)ccc(Cl)c5F)cc(=O)n43)[nH]2)ccn1` (stereo in doubt) [Example 97, (6*S,8*S)-2-(3-Chloro-2-fluoro-6-(1H-tetrazol-1-yl)phenyl)-6-(5-(2-methoxypyridin-4-yl)-1H-imidazol-2-yl)-8-methyl-7,8-dihydropyrrolo[1,2-a]pyrimidin-4(6H)-one] the IC50 ([1]; unit μM) was 6.4 µM and the IC50 ([2]; unit μM) was > 10 µM.

With `C[C@@H]1C[C@H](c2ncc(-c3cnnn3C)[nH]2)n2c1nc(-c1c(-n3cnnn3)ccc(Cl)c1F)cc2=O` (relative stereo) [Example 135, (6*R,8*R)-2-(3-Chloro-2-fluoro-6-(1H-tetrazol-1-yl)phenyl)-8-methyl-6-(5-(1-methyl-1H-1,2,3-triazol-5-yl)-1H-imidazol-2-yl)-7,8-dihydropyrrolo[1,2-a]pyrimidin-4(6H)-one] the IC50 ([1]; unit μM) was 2.7 µM and the IC50 ([2]; unit μM) was > 10 µM.

With `C[C@@H]1C[C@H](c2ncc(-c3ccn4nccc4c3)[nH]2)n2c1cc(-c1c(-n3cnnn3)ccc(Cl)c1F)cc2=O` (stereo in doubt) [Example 52, (1*R,3*R)-7-(3-Chloro-2-fluoro-6-(1H-tetrazol-1-yl)phenyl)-1-methyl-3-(5-(pyrazolo[1,5-a]pyridin-5-yl)-1H-imidazol-2-yl)-2,3-dihydroindolizin-5(1H)-one] the IC50 ([1]; unit μM) was 7.9 µM and the IC50 ([2]; unit μM) was > 10 µM.

`C[C@H]1C[C@H](c2ncc(-c3ncc(N)nc3C3CC3)[nH]2)n2c1nc(-c1c(-n3cnnn3)ccc(Cl)c1F)cc2=O` (relative stereo) [Example 90, (6*R,8*S)-6-(5-(5-Amino-3-cyclopropylpyrazin-2-yl)-1H-imidazol-2-yl)-2-(3-chloro-2-fluoro-6-(1H-tetrazol-1-yl)phenyl)-8-methyl-7,8-dihydropyrrolo[1,2-a]pyrimidin-4(6H)-one] gave an IC50 ([1]; values in nM) of 0.0214 µM and an IC50 ([2]; values in nM) of 0.298 µM.

`C[C@@H]1C[C@H](c2cnc(-c3ccc(N)nc3F)[nH]2)n2c1cc(-c1c(-n3cnnn3)ccc(Cl)c1F)cc2=O` (stereo in doubt) [Example 55, (1R*,3R*)-3-(2-(6-Amino-2-fluoropyridin-3-yl)-1H-imidazol-5-yl)-7-(3-chloro-2-fluoro-6-(1H-tetrazol-1-yl)phenyl)-1-methyl-2,3-dihydroindolizin-5(1H)-one] showed an IC50 ([1]; values in nM) of 0.0011 µM and an IC50 ([2]; values in nM) of 0.0425 µM.

Compound `Nc1ccc(-c2cnc([C@H]3CC4(CC4)c4nc(-c5c(-n6cnnn6)ccc(Cl)c5F)cc(=O)n43)[nH]2)c(F)n1` [Example 133, (R)-6′-(5-(6-Amino-2-fluoropyridin-3-yl)-1H-imidazol-2-yl)-2′-(3-chloro-2-fluoro-6-(1H-tetrazol-1-yl)phenyl)-6′,7′-dihydro-4′H-spiro[cyclopropane-1,8′-pyrrolo[1,2-a]pyrimidin]-4′-one] has an IC50 ([1]; values in nM) of 0.231 µM and an IC50 ([2]; unit μM) of 4 µM.

For `C[C@H]1C[C@@H](c2ncc(-c3c(C#N)cnn3C)[nH]2)n2c1cc(-c1c(-n3cnnn3)ccc(Cl)c1F)cc2=O` [Example 14, 5-(2-((1S,3S)-7-(3-Chloro-2-fluoro-6-(1H-tetrazol-1-yl)phenyl)-1-methyl-5-oxo-1,2,3,5-tetrahydroindolizin-3-yl)-1H-imidazol-5-yl)-1-methyl-1H-pyrazole-4-carbonitrile], the IC50 ([1]; values in nM) was 0.189 µM and the IC50 ([2]; unit μM) was 4.7 µM.

`COc1cc(-c2cnc([C@H]3C[C@@H](C)c4nc(-c5c(-n6cnnn6)ccc(Cl)c5F)cc(=O)n43)[nH]2)ccn1` (stereo in doubt) [Example 99, (6*R,8*R)-2-(3-Chloro-2-fluoro-6-(1H-tetrazol-1-yl)phenyl)-6-(5-(2-methoxypyridin-4-yl)-1H-imidazol-2-yl)-8-methyl-7,8-dihydropyrrolo[1,2-a]pyrimidin-4(6H)-one] was tested, and the IC50 ([1]; values in nM) was 0.008 µM and the IC50 ([2]; values in nM) was 0.0238 µM.

`C[C@@H]1C[C@H](c2ncc(-c3ccc(N)nc3F)[nH]2)n2c1cc(-c1c(-n3cnnn3)ccc(Cl)c1F)cc2=O` (stereo in doubt) [Example 56, (1*R,3*R)-3-(5-(6-Amino-2-fluoropyridin-3-yl)-1H-imidazol-2-yl)-7-(3-chloro-2-fluoro-6-(1H-tetrazol-1-yl)phenyl)-1-methyl-2,3-dihydroindolizin-5(1H)-one] was tested, and the IC50 ([1]; unit μM) was 1.2 µM and the IC50 ([2]; unit μM) was > 10 µM.
